Laboratory results as given in BigSolDB 2.1.

Compound: OCc1ccc(O[C@@H]2O[C@H](CO)[C@@H](O)[C@H](O)[C@H]2O)cc1
- solubility (mole fraction) (in 1,4-dioxane, 288.15 K): 0.00324
- solubility (mole fraction) (in 1,4-dioxane, 293.15 K): 0.00373
- solubility (mole fraction) (in 1,4-dioxane, 298.15 K): 0.0043
- solubility (mole fraction) (in 1,4-dioxane, 303.15 K): 0.00493
- solubility (mole fraction) (in 1,4-dioxane, 308.15 K): 0.00562
- solubility (mole fraction) (in 1,4-dioxane, 313.15 K): 0.0063
- solubility (mole fraction) (in acetone, 273.15 K): 0.00097
- solubility (mole fraction) (in acetone, 278.15 K): 0.00117
- solubility (mole fraction) (in acetone, 283.15 K): 0.00142
- solubility (mole fraction) (in acetone, 288.15 K): 0.00171
- solubility (mole fraction) (in acetone, 293.15 K): 0.00199
- solubility (mole fraction) (in acetone, 298.15 K): 0.00233
- solubility (mole fraction) (in acetone, 303.15 K): 0.00273
- solubility (mole fraction) (in acetone, 308.15 K): 0.00318
- solubility (mole fraction) (in acetone, 313.15 K): 0.00368
- solubility (mole fraction) (in acetonitrile, 273.15 K): 0.00066
- solubility (mole fraction) (in acetonitrile, 278.15 K): 0.00076
- solubility (mole fraction) (in acetonitrile, 283.15 K): 0.00088
- solubility (mole fraction) (in acetonitrile, 288.15 K): 0.001
- solubility (mole fraction) (in acetonitrile, 293.15 K): 0.00115
- solubility (mole fraction) (in acetonitrile, 298.15 K): 0.0013
- solubility (mole fraction) (in acetonitrile, 303.15 K): 0.00147
- solubility (mole fraction) (in acetonitrile, 308.15 K): 0.00166
- solubility (mole fraction) (in acetonitrile, 313.15 K): 0.00188
- solubility (mole fraction) (in cyclohexane, 273.15 K): 0.000383
- solubility (mole fraction) (in cyclohexane, 278.15 K): 0.000624
- solubility (mole fraction) (in cyclohexane, 283.15 K): 0.000909
- solubility (mole fraction) (in cyclohexane, 288.15 K): 0.00125
- solubility (mole fraction) (in cyclohexane, 293.15 K): 0.0016
- solubility (mole fraction) (in cyclohexane, 298.15 K): 0.00213
- solubility (mole fraction) (in cyclohexane, 303.15 K): 0.00261
- solubility (mole fraction) (in cyclohexane, 308.15 K): 0.00326
- solubility (mole fraction) (in cyclohexane, 313.15 K): 0.00396
- solubility (mole fraction) (in cyclohexanone, 273.15 K): 0.00128
- solubility (mole fraction) (in cyclohexanone, 278.15 K): 0.00152
- solubility (mole fraction) (in cyclohexanone, 283.15 K): 0.00185
- solubility (mole fraction) (in cyclohexanone, 288.15 K): 0.0022
- solubility (mole fraction) (in cyclohexanone, 293.15 K): 0.00257
- solubility (mole fraction) (in cyclohexanone, 298.15 K): 0.00299
- solubility (mole fraction) (in cyclohexanone, 303.15 K): 0.00344
- solubility (mole fraction) (in cyclohexanone, 308.15 K): 0.00396
- solubility (mole fraction) (in cyclohexanone, 313.15 K): 0.00455
- solubility (mole fraction) (in ethanol, 273.15 K): 0.00085
- solubility (mole fraction) (in ethanol, 278.15 K): 0.00105
- solubility (mole fraction) (in ethanol, 283.15 K): 0.00129
- solubility (mole fraction) (in ethanol, 288.15 K): 0.00157
- solubility (mole fraction) (in ethanol, 293.15 K): 0.00188
- solubility (mole fraction) (in ethanol, 298.15 K): 0.0022
- solubility (mole fraction) (in ethanol, 303.15 K): 0.00255
- solubility (mole fraction) (in ethanol, 308.15 K): 0.00296
- solubility (mole fraction) (in ethanol, 313.15 K): 0.00337
- solubility (mole fraction) (in ethyl acetate, 273.15 K): 0.00174
- solubility (mole fraction) (in ethyl acetate, 278.15 K): 0.002
- solubility (mole fraction) (in ethyl acetate, 283.15 K): 0.00234
- solubility (mole fraction) (in ethyl acetate, 288.15 K): 0.00274
- solubility (mole fraction) (in ethyl acetate, 293.15 K): 0.00318
- solubility (mole fraction) (in ethyl acetate, 298.15 K): 0.00364
- solubility (mole fraction) (in ethyl acetate, 303.15 K): 0.00418
- solubility (mole fraction) (in ethyl acetate, 308.15 K): 0.00481
- solubility (mole fraction) (in ethyl acetate, 313.15 K): 0.00543
- solubility (mole fraction) (in isopropanol, 273.15 K): 0.00114
- solubility (mole fraction) (in isopropanol, 278.15 K): 0.00139
- solubility (mole fraction) (in isopropanol, 283.15 K): 0.00169
- solubility (mole fraction) (in isopropanol, 288.15 K): 0.002
- solubility (mole fraction) (in isopropanol, 293.15 K): 0.00235
- solubility (mole fraction) (in isopropanol, 298.15 K): 0.00271
- solubility (mole fraction) (in isopropanol, 303.15 K): 0.00312
- solubility (mole fraction) (in isopropanol, 308.15 K): 0.00356
- solubility (mole fraction) (in isopropanol, 313.15 K): 0.00403
- solubility (mole fraction) (in n-butanol, 273.15 K): 0.0368
- solubility (mole fraction) (in n-butanol, 278.15 K): 0.0395
- solubility (mole fraction) (in n-butanol, 283.15 K): 0.0423
- solubility (mole fraction) (in n-butanol, 288.15 K): 0.0454
- solubility (mole fraction) (in n-butanol, 293.15 K): 0.0486
- solubility (mole fraction) (in n-butanol, 298.15 K): 0.0521
- solubility (mole fraction) (in n-butanol, 303.15 K): 0.0557
- solubility (mole fraction) (in n-butanol, 308.15 K): 0.0595
- solubility (mole fraction) (in n-butanol, 313.15 K): 0.0633
- solubility (mole fraction) (in n-propanol, 273.15 K): 0.00074
- solubility (mole fraction) (in n-propanol, 278.15 K): 0.00094
- solubility (mole fraction) (in n-propanol, 283.15 K): 0.00115
- solubility (mole fraction) (in n-propanol, 288.15 K): 0.00138
- solubility (mole fraction) (in n-propanol, 293.15 K): 0.00165
- solubility (mole fraction) (in n-propanol, 298.15 K): 0.00194
- solubility (mole fraction) (in n-propanol, 303.15 K): 0.00226
- solubility (mole fraction) (in n-propanol, 308.15 K): 0.00262
- solubility (mole fraction) (in n-propanol, 313.15 K): 0.00301
- solubility (mole fraction) (in toluene, 273.15 K): 0.00148
- solubility (mole fraction) (in toluene, 278.15 K): 0.0018
- solubility (mole fraction) (in toluene, 283.15 K): 0.00212
- solubility (mole fraction) (in toluene, 288.15 K): 0.00248
- solubility (mole fraction) (in toluene, 293.15 K): 0.00288
- solubility (mole fraction) (in toluene, 298.15 K): 0.0033
- solubility (mole fraction) (in toluene, 303.15 K): 0.00378
- solubility (mole fraction) (in toluene, 308.15 K): 0.00431
- solubility (mole fraction) (in toluene, 313.15 K): 0.00493
